Measured values as given in patent US20140213513A1 (Sanofi, priority 2012, published 2014).
*1 amine or outer side, *2 acyl side, *3 side chain or, on linkers, in order; H or OH if unused. Where a SMILES comes first, the peptide text is derived from it. Side-chain parts run from the residue outwards. [ ]: non-standard residue; d: D form. The star is where a group is joined. γGlu = O=C(O)[C@H](CCC(=O)[*:2])N[*:1]; Stearoyl = CCCCCCCCCCCCCCCCCC(=O)*; Palmitoyl = CCCCCCCCCCCCCCCC(=O)*; Aib = CC(C)(N)C(=O)O

Assays:
Assay type in all cases: cell-based
Conditions in all cases: Table 7; cAMP formation
[1] = target: T1, human GIP receptor (hGIP R) (Homo sapiens, UniProt P48546); assay: cAMP response of HEK-293 cells stably expressing human GIP receptor (HTRF)
T1 construct: expressed in transfected cells
T1 sequence (P48546 22-466): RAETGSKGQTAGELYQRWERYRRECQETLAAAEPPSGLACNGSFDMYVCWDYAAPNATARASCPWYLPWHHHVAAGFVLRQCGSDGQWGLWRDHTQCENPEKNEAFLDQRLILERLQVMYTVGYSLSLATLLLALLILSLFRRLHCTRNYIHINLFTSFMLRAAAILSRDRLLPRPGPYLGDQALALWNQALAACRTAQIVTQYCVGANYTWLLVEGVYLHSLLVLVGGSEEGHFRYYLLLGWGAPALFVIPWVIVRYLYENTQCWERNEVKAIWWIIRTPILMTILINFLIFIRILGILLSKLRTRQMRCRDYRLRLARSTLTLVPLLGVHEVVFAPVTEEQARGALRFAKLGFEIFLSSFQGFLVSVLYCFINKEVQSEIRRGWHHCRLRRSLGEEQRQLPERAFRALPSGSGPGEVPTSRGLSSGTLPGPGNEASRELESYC
How it was run: (§1)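 After near-confluent growth in DMEM with 10% FBS, cells were washed in Ca/Mg-free PBS, lifted with accutase and diluted to 400000 cells/ml in IBMX (2 mM)-containing HEPES-buffered HBSS with 0.1% BSA. Compounds were applied for 30 minutes at room temperature before homogeneous time-resolved fluorescence quantitation of cAMP.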

[2] = target: T2, human glucagon receptor (hGLUC R) (Homo sapiens, UniProt P47871); assay: cAMP response of HEK-293 cells stably expressing human glucagon receptor (HTRF)
T2 construct: expressed in transfected cells
How it was run: as §1

[3] = target: T3, human GLP-1 receptor (hGLP-1 R) (Homo sapiens, UniProt P43220); assay: cAMP response of HEK-293 cells stably expressing human GLP-1 receptor (HTRF)
T3 construct: expressed in transfected cells
How it was run: as §1

T2 sequence (P47871 26-477): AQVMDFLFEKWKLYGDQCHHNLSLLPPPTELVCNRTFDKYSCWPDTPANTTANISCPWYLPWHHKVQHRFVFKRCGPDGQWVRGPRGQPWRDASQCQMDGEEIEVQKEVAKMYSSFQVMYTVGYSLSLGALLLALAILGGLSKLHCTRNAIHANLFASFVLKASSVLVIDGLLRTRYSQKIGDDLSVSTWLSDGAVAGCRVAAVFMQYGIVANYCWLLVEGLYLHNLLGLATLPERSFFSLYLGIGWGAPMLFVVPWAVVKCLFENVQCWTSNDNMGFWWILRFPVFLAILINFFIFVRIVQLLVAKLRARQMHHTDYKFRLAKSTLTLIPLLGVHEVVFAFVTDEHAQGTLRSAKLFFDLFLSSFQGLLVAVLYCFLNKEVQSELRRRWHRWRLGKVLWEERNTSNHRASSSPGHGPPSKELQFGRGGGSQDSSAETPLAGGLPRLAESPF
T3 sequence (P43220 24-463): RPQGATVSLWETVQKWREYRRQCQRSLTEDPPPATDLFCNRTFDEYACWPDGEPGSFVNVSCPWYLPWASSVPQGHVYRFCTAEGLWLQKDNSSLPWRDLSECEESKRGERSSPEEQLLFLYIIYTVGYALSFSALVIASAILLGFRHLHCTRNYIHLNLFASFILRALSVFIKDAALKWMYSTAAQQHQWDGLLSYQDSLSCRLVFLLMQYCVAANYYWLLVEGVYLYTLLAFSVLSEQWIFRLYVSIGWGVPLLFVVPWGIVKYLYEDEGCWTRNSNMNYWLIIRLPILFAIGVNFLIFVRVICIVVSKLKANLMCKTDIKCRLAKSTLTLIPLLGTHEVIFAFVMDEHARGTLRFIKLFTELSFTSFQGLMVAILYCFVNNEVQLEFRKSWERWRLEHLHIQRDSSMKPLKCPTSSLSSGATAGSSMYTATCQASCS

CCCCCCCCCCCCCCCC(=O)N[C@@H](CCC(=O)NCCCC[C@H](NC(=O)[C@H](CCC(N)=O)NC(=O)[C@@H](NC(=O)[C@H](CO)NC(=O)[C@H](CC(C)C)NC(=O)[C@H](CC(=O)O)NC(=O)[C@H](CO)NC(=O)[C@@H](NC(=O)[C@H](Cc1ccccc1)NC(=O)[C@@H](NC(=O)CNC(=O)[C@H](CCC(=O)O)NC(=O)C(C)(C)NC(=O)[C@@H](N)Cc1ccc(O)cc1)[C@@H](C)O)[C@@H](C)O)[C@@H](C)CC)C(=O)N[C@@H](CC(=O)O)C(=O)N[C@@H](CCCCN)C(=O)N[C@@H](CCCNC(=N)N)C(=O)N[C@@H](C)C(=O)N[C@@H](C)C(=O)N[C@@H](CCC(N)=O)C(=O)N[C@@H](CC(C)C)C(=O)N[C@@H](Cc1ccccc1)C(=O)N[C@H](C(=O)N[C@@H](CCC(=O)O)C(=O)N[C@@H](Cc1c[nH]c2ccccc12)C(=O)N[C@@H](CC(C)C)C(=O)N[C@@H](CCCCN)C(=O)N[C@@H](CC(N)=O)C(=O)NCC(=O)NCC(=O)N1CCC[C@H]1C(=O)N[C@@H](CO)C(=O)N[C@@H](CO)C(=O)NCC(=O)N[C@@H](C)C(=O)N1CCC[C@H]1C(=O)N1CCC[C@H]1C(=O)N1CCC[C@H]1C(=O)N[C@@H](CO)C(N)=O)[C@@H](C)CC)C(=O)O [SEQ ID NO: 55, Y-Aib-E-G-T-F-T-S-D-L-S-I-Q-K(yE-x53)-DKRAAQLFIEWLKNGGPSSGAPPPS-NH2] (H-Y[Aib]EGTFTSDLSIQK([γGlu-Palmitoyl])DKRAAQLFIEWLKNGGPSSGAPPPS-NH2) was tested. Which EC50 [1] did it give?
Its EC50 is 0.0156 nM.

And the EC50 [2]?
The EC50 was 18.3 nM.

What about the EC50 [3] of the same molecule?
Its EC50 is 0.0161 nM.

What does the source list for CCCCCCCCCCCCCCCC(=O)N[C@@H](CCC(=O)NCCCC[C@H](NC(=O)[C@H](CCC(N)=O)NC(=O)[C@@H](NC(=O)[C@H](CO)NC(=O)[C@H](CC(C)C)NC(=O)[C@H](CC(=O)O)NC(=O)[C@H](CO)NC(=O)[C@@H](NC(=O)[C@H](Cc1ccccc1)NC(=O)[C@@H](NC(=O)CNC(=O)[C@H](CCC(N)=O)NC(=O)C(C)(C)NC(=O)[C@@H](N)Cc1ccc(O)cc1)[C@@H](C)O)[C@@H](C)O)[C@@H](C)CC)C(=O)N[C@@H](CC(=O)O)C(=O)N[C@@H](CCCCN)C(=O)N[C@@H](CCCNC(=N)N)C(=O)N[C@@H](C)C(=O)N[C@@H](C)C(=O)N[C@@H](CCC(N)=O)C(=O)N[C@@H](CC(=O)O)C(=O)N[C@@H](Cc1ccccc1)C(=O)N[C@H](C(=O)N[C@@H](CCC(=O)O)C(=O)N[C@@H](Cc1c[nH]c2ccccc12)C(=O)N[C@@H](CC(C)C)C(=O)N[C@@H](CCCCN)C(=O)N[C@@H](CCCCN)C(=O)NCC(=O)NCC(=O)N1CCC[C@H]1C(=O)N[C@@H](CO)C(=O)N[C@@H](CO)C(=O)NCC(=O)N[C@@H](C)C(=O)N1CCC[C@H]1C(=O)N1CCC[C@H]1C(=O)N1CCC[C@H]1C(=O)N[C@@H](CO)C(N)=O)[C@@H](C)CC)C(=O)O [SEQ ID NO: 44, Y-Aib-Q-G-T-F-T-S-D-L-S-I-Q-K(yE-x53)-DKRAAQDFIEWLKKGGPSSGAPPPS-NH2] (H-Y[Aib]QGTFTSDLSIQK([γGlu-Palmitoyl])DKRAAQDFIEWLKKGGPSSGAPPPS-NH2)?
EC50 [1]: 0.0255 nM; EC50 [2]: 0.0552 nM; EC50 [3]: 0.0097 nM

What does the source list for CCCCCCCCCCCCCCCC(=O)N[C@@H](CCC(=O)NCCCC[C@H](NC(=O)[C@H](CCC(N)=O)NC(=O)[C@@H](NC(=O)[C@H](CO)NC(=O)[C@H](CC(C)C)NC(=O)[C@H](CC(=O)O)NC(=O)[C@H](CO)NC(=O)[C@@H](NC(=O)[C@H](Cc1ccccc1)NC(=O)[C@@H](NC(=O)CNC(=O)[C@H](CCC(N)=O)NC(=O)C(C)(C)NC(=O)[C@@H](N)Cc1ccc(O)cc1)[C@@H](C)O)[C@@H](C)O)[C@@H](C)CC)C(=O)N[C@@H](CCC(=O)O)C(=O)N[C@@H](CCCCN)C(=O)N[C@@H](C)C(=O)N[C@@H](C)C(=O)N[C@@H](C)C(=O)NC(C)(C)C(=O)N[C@@H](CCC(=O)O)C(=O)N[C@@H](Cc1ccccc1)C(=O)N[C@H](C(=O)N[C@@H](CCC(=O)O)C(=O)N[C@@H](Cc1c[nH]c2ccccc12)C(=O)N[C@@H](CC(C)C)C(=O)N[C@@H](CCCCN)C(=O)N[C@@H](CC(N)=O)C(=O)N[C@H](C(=O)NCC(=O)N1CCC[C@H]1C(=O)N[C@@H](CO)C(=O)N[C@@H](CO)C(=O)NCC(=O)N[C@@H](C)C(=O)N1CCC[C@H]1C(=O)N1CCC[C@H]1C(=O)N1CCC[C@H]1C(=O)N[C@@H](CO)C(N)=O)[C@@H](C)O)[C@@H](C)CC)C(=O)O [SEQ ID NO: 12, Y-Aib-Q-G-T-F-T-S-D-L-S-I-Q-K(yE-x53)-E-K-A-A-A-Aib-EFIEWLKNTGPSSGAPPPSN H2] (H-Y[Aib]QGTFTSDLSIQK([γGlu-Palmitoyl])EKAAA[Aib]EFIEWLKNTGPSSGAPPPS-NH2)?
EC50 [1]: 0.008 nM; EC50 [2]: 0.139 nM; EC50 [3]: 0.0055 nM

Which EC50 [1] does the source give for CCCCCCCCCCCCCCCC(=O)N[C@@H](CCC(=O)NCCCC[C@H](NC(=O)[C@H](CCC(N)=O)NC(=O)[C@@H](NC(=O)[C@H](CO)NC(=O)[C@H](CC(C)C)NC(=O)[C@H](CC(=O)O)NC(=O)[C@H](CO)NC(=O)[C@@H](NC(=O)[C@H](Cc1ccccc1)NC(=O)[C@@H](NC(=O)CNC(=O)[C@H](CCC(N)=O)NC(=O)C(C)(C)NC(=O)[C@@H](N)Cc1ccc(O)cc1)[C@@H](C)O)[C@@H](C)O)[C@@H](C)CC)C(=O)N[C@@H](CCC(=O)O)C(=O)N[C@@H](CCCCN)C(=O)N[C@@H](CCCNC(=N)N)C(=O)N[C@@H](C)C(=O)NC(C)(C)C(=O)NC(C)(C)C(=O)N[C@@H](CCC(=O)O)C(=O)N[C@@H](Cc1ccccc1)C(=O)N[C@H](C(=O)N[C@@H](CCC(=O)O)C(=O)N[C@@H](Cc1c[nH]c2ccccc12)C(=O)N[C@@H](CC(C)C)C(=O)N[C@@H](CCCCN)C(=O)N[C@@H](CC(N)=O)C(=O)N[C@H](C(=O)NCC(=O)N1CCC[C@H]1C(=O)N[C@@H](CO)C(=O)N[C@@H](CO)C(=O)NCC(=O)N[C@@H](C)C(=O)N1CCC[C@H]1C(=O)N1CCC[C@H]1C(=O)N1CCC[C@H]1C(=O)N[C@@H](CO)C(N)=O)[C@@H](C)O)[C@@H](C)CC)C(=O)O [SEQ ID NO: 22, Y-Aib-Q-G-T-F-T-S-D-L-S-I-Q-K(yE-x53)-E-K-R-A-Aib-Aib-E-F-I-E-W-L-K-N-T-G-P-S-S-G-A-P-P-P-S-NH2] (H-Y[Aib]QGTFTSDLSIQK([γGlu-Palmitoyl])EKRA[Aib][Aib]EFIEWLKNTGPSSGAPPPS-NH2) here?
Its EC50 is 0.102 nM.

What about the EC50 [2] of the same molecule?
Its EC50 is 2.21 nM.

And the EC50 [3]?
Its EC50 is 0.0085 nM.

CCCCCCCCCCCCCCCCCC(=O)N[C@@H](CCC(=O)NCCCC[C@H](NC(=O)[C@H](CCC(N)=O)NC(=O)[C@@H](NC(=O)[C@H](CO)NC(=O)[C@H](CC(C)C)NC(=O)[C@H](CC(=O)O)NC(=O)[C@H](CO)NC(=O)[C@@H](NC(=O)[C@H](Cc1ccccc1)NC(=O)[C@@H](NC(=O)CNC(=O)[C@H](CCC(=O)O)NC(=O)C(C)(C)NC(=O)[C@@H](N)Cc1ccc(O)cc1)[C@@H](C)O)[C@@H](C)O)[C@@H](C)CC)C(=O)N[C@@H](CCC(=O)O)C(=O)N[C@@H](CO)C(=O)N[C@@H](CCCCN)C(=O)N[C@@H](C)C(=O)N[C@@H](C)C(=O)NC(C)(C)C(=O)N[C@@H](CCC(=O)O)C(=O)N[C@@H](Cc1ccccc1)C(=O)N[C@H](C(=O)N[C@@H](CCC(=O)O)C(=O)N[C@@H](Cc1c[nH]c2ccccc12)C(=O)N[C@@H](CC(C)C)C(=O)N[C@@H](CCCCN)C(=O)N[C@@H](C)C(=O)NCC(=O)NCC(=O)N1CCC[C@H]1C(=O)N[C@@H](CO)C(=O)N[C@@H](CO)C(=O)NCC(=O)N[C@@H](C)C(=O)N1CCC[C@H]1C(=O)N1CCC[C@H]1C(=O)N1CCC[C@H]1C(=O)N[C@@H](CO)C(N)=O)[C@@H](C)CC)C(=O)O [SEQ ID NO: 29, Y-Aib-E-G-T-F-T-S-D-L-S-I-Q-K(yE-x70)-E-S-K-A-A-Aib-E-F-I-E-W-L-K-A-G-G-P-S-S-G-A-P-P-P-S-NH2] (H-Y[Aib]EGTFTSDLSIQK([γGlu-Stearoyl])ESKAA[Aib]EFIEWLKAGGPSSGAPPPS-NH2) was tested. Which EC50 [1] did it give?
The EC50 was 0.013 nM.

And the EC50 [2]?
Its EC50 is 15 nM.

What about the EC50 [3] of the same molecule?
Its EC50 is 0.0072 nM.

How did the EC50 [1] turn out when CCCCCCCCCCCCCCCC(=O)NCCCC[C@H](NC(=O)[C@H](CCC(N)=O)NC(=O)[C@@H](NC(=O)[C@H](CO)NC(=O)[C@H](CC(C)C)NC(=O)[C@H](CC(=O)O)NC(=O)[C@H](CO)NC(=O)[C@@H](NC(=O)[C@H](Cc1ccccc1)NC(=O)[C@@H](NC(=O)CNC(=O)[C@H](CCC(N)=O)NC(=O)C(C)(C)NC(=O)[C@@H](N)Cc1ccc(O)cc1)[C@@H](C)O)[C@@H](C)O)[C@@H](C)CC)C(=O)N[C@@H](CCC(=O)O)C(=O)N[C@@H](CCCCN)C(=O)N[C@@H](CCCNC(=N)N)C(=O)N[C@@H](C)C(=O)N[C@H](C(=O)NC(C)(C)C(=O)N[C@@H](CC(C)C)C(=O)N[C@@H](Cc1ccccc1)C(=O)N[C@H](C(=O)N[C@@H](CCC(=O)O)C(=O)N[C@@H](Cc1c[nH]c2ccccc12)C(=O)N[C@@H](CC(C)C)C(=O)N[C@@H](CCCCN)C(=O)N[C@@H](C)C(=O)NCC(=O)NCC(=O)N1CCC[C@H]1C(=O)N[C@@H](CO)C(=O)N[C@@H](CO)C(=O)NCC(=O)N[C@@H](C)C(=O)N1CCC[C@H]1C(=O)N1CCC[C@H]1C(=O)N1CCC[C@H]1C(=O)N[C@@H](CO)C(N)=O)[C@@H](C)CC)C(C)C [SEQ ID NO: 25, Y-Aib-Q-G-T-F-T-S-D-L-S-I-Q-K(x53)-E-K-R-A-V-Aib-L-F-I-E-W-L-K-A-G-G-P-S-S-G-A-P-P-P-S-NH2] (H-Y[Aib]QGTFTSDLSIQK(Palmitoyl)EKRAV[Aib]LFIEWLKAGGPSSGAPPPS-NH2) was run?
Its EC50 is 0.176 nM.

And the EC50 [2]?
The EC50 was 2.03 nM.

And the EC50 [3]?
Its EC50 is 0.037 nM.
